Assay results published in patent US9631225B2, “Luciferase-based assays” (Promega Corporation, priority 2002, dated 2017).

How the values were obtained:
Renilla luciferase = biological target: T1, Renilla luciferase (Renilla reniformis, UniProt P27652); test: Protection of Renilla luciferase reaction from inhibition by isoliquirtigenin (ILT); type: biochemical; conditions: ILT 100 μM
T1 construct: purchased ChemiCon Chemicals
T1 sequence (P27652 1-311): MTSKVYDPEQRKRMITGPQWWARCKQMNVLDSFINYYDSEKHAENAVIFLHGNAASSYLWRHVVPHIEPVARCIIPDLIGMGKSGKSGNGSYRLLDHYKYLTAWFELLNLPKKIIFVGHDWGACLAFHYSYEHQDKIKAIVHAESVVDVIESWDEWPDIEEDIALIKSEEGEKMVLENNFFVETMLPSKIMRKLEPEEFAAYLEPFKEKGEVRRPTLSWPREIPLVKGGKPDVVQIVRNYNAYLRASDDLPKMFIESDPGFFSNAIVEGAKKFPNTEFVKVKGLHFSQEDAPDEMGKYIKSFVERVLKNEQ
Method: (§1) In this experiment, several tolerance enhancing agents were evaluated for their ability to protect luciferases from a known luciferase inhibitor, isoliquirtigenin (ILT) (100 μM, Sigma Chemical). ILT was added to luciferase reactions and the potential tolerance enhancing agents were evaluated for their ability to protect the luciferase from inhibition.
The basic Renilla luciferase reactions contained 100 mM Potassium Phosphate buffer (Sigma Chemical) at pH 7.4, 500 mM Sodium Chloride (Fisher Scientific), 1.0 mM EDTA (Sigma Chemical), 200 nM Coelenterazine (Promega Biosciences), 0.1% Gelatin (Sigma Chemical) and 0.12 nmol/ml Renilla luciferase (ChemiCon Chemicals).
(§2) ILT was solubilized at 100 mM in dimethyl sulfoxide (Sigma Chemical). ILT was diluted 1:1000 and the protectors were diluted into the reaction mix before the reaction was initiated by the addition of luciferase.
(§3) Reaction volume for each sample was 100 μl. Luminescence was integrated for 0.5 seconds per sample in a Turner Biosystems Veritas® luminometer immediately after luciferase was added to the reactions and the reactions were mixed. All measurements were done in triplicate.
(§4) The relative protection provided by each compound is calculated as difference between the luminescence generated in the presence and the absence of the protector divided by the total amount of inhibition as represented by the following equation: (L1−L2)/(L3−L4) wherein L1 represents luminescence with inhibitor and tolerance enhancing agent; L2 represents luminescence with inhibitor and no tolerance enhancing agent; L3 represents luminescence with no inhibitor and no tolerance enhancing agent; and L4 represents luminescence with inhibitor and no tolerance enhancing agent.
(§5) The relative protection in the presence of no tolerance enhancing agent, therefore, is 0% and in the absence of an inhibitor is 100%. The reactions used to generate luminescence in the absence of either inhibitor or tolerance enhancing agent still contained the solvent utilized to solubilize the inhibitor with which the reaction was to be compared.

[1] = biological target: T2, firefly luciferase (QuantiLum® luciferase) (Photinus pyralis, UniProt P08659); test: Protection of firefly luciferase reaction from inhibition by isoliquirtigenin (ILT); type: biochemical; conditions: ILT 100 μM
T2 construct: purchased Promega Corporation
Method: as §1
The basic firefly luciferase reactions contained 20 mM HEPES (Sigma Chemical) at pH 8.0, 6.4 mM Magnesium Sulfate (Fisher Scientific), 20 mM Dithiothreitol (City Chemical), 0.63 mM Coenzyme A (Pharmacia Biochemical), 0.4 mM EDTA (Sigma Chemical), 4.0 μM Luciferin (Promega Biosciences), 0.56 mM ATP (Pharmacia Biochemical), and 1.3×10^−6 mg/ml firefly luciferase (QuantiLum® luciferase, Promega Corporation).
as §2, §3, §4, §5

[2] = protector reaction concentration 0.10%
[3] = protector reaction concentration 0.02%

T2 sequence (P08659 whole entry): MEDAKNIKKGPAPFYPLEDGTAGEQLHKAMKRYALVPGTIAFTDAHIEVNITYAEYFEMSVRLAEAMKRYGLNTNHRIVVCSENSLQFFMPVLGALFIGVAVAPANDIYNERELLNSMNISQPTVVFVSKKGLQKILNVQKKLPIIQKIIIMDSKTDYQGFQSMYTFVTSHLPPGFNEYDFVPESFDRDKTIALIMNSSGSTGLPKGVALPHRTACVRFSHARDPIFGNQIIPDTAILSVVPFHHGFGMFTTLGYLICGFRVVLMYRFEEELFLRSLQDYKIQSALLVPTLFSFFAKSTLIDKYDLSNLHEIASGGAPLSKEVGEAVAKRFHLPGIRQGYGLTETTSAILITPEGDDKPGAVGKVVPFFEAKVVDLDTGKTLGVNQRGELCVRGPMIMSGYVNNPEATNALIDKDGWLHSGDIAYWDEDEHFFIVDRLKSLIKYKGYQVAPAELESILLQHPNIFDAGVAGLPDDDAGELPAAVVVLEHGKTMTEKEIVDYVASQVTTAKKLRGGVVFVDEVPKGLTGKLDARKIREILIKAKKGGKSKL

OC[C@H]1O[C@@](CO)(O[C@H]2O[C@H](CO)[C@@H](O)[C@H](O)[C@H]2O)[C@@H](O)[C@@H]1O [Sucrose]
Relative Protection Against ILT (Renilla luciferase; protector reaction concentration 0.10% (w:v)): 24% | Relative Protection Against ILT ([1]; protector reaction concentration 0.5% (w:v)): 32%

CCCCCCCCCCCCCCCC[N+](C)(C)C.[Br-] [CTAB, cetyltrimethylammonium]
Relative Protection Against ILT (Renilla luciferase; [2]): 95% | Relative Protection Against ILT [1, 3]: 100%

Deoxycholate
Relative Protection Against ILT (Renilla luciferase; [2]): 72% | Relative Protection Against ILT [1, 3]: 81%

nonylphenol polyethylene glycol ether (C9H19C6H—(OCH2CH2)9OH) [Tergitol NP-9® detergent]
Relative Protection Against ILT (Renilla luciferase; [2]): 97% | Relative Protection Against ILT [1, 3]: 88%

C[C@H](CCC(=O)NCCC[N+](C)(C)CCCS(=O)(=O)[O-])[C@H]1CC[C@H]2[C@@H]3[C@H](O)C[C@@H]4C[C@H](O)CC[C@]4(C)[C@H]3C[C@H](O)[C@]12C [CHAPS® detergent, 3-([3-Cholamidopropyl]dimethylammonio)-1-propanesulfonate]
Relative Protection Against ILT (Renilla luciferase; [2]): 14% | Relative Protection Against ILT (Renilla luciferase; protector reaction concentration 0.50%): 97% | Relative Protection Against ILT [1, 3]: 18% | Relative Protection Against ILT [1, 2]: 57%

OC[C@H]1O[C@@H]2O[C@H]3[C@H](O)[C@@H](O)[C@@H](O[C@H]4[C@H](O)[C@@H](O)[C@@H](O[C@H]5[C@H](O)[C@@H](O)[C@@H](O[C@H]6[C@H](O)[C@@H](O)[C@@H](O[C@H]7[C@H](O)[C@@H](O)[C@@H](O[C@H]1[C@H](O)[C@H]2O)O[C@@H]7CO)O[C@@H]6CO)O[C@@H]5CO)O[C@@H]4CO)O[C@@H]3CO [α-Cyclodextrin, α-Cyclodextrin (Cyclohexaamylose)]
Relative Protection Against ILT (Renilla luciferase; protector reaction concentration 1.4 mM): 60% | Relative Protection Against ILT ([1]; protector reaction concentration 7 mM): 61%
